“And” between values parts separate entries of the source, which are not always exact repeats. Equal values may be shown once.
How the values were obtained:
NFKBIA = conditions: two screens; read-out: NFKBIA induction, EC50; cited from earlier work
SENP6 = biological target: T1, SENP6 (Homo sapiens, UniProt Q9GZR1); conditions: 2 screens; 10.0 μM or 12. μM; cited from earlier work
T1 sequence (Q9GZR1 1-1112): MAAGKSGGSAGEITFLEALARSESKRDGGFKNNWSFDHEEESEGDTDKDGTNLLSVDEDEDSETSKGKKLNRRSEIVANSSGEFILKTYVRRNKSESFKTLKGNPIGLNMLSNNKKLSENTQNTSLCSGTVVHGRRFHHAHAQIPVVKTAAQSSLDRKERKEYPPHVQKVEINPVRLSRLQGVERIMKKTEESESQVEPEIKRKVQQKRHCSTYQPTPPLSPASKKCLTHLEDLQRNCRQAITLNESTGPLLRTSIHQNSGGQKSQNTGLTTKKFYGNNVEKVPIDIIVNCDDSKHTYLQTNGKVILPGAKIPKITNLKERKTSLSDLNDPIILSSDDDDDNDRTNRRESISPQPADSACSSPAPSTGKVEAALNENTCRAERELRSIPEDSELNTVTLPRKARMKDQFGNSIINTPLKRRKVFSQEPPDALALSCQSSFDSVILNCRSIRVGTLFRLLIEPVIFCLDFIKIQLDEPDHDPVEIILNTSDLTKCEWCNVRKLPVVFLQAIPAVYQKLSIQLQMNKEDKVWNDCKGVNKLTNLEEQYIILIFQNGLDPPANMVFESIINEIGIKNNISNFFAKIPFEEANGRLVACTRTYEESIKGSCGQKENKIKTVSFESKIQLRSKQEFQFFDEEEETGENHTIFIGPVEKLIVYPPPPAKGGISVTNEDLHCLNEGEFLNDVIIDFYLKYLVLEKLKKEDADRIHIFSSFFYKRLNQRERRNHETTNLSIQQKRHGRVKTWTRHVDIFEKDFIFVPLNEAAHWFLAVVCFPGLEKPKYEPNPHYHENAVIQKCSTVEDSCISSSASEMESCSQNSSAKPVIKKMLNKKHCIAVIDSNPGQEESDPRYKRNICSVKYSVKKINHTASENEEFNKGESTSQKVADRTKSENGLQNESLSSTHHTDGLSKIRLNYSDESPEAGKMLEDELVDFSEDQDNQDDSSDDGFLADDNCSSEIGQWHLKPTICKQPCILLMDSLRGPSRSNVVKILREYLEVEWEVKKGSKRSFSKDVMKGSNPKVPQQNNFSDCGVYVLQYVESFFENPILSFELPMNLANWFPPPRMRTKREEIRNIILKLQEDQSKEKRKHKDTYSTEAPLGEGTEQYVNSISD

SENP7 = biological target: T2, SENP7 (Homo sapiens, UniProt Q9BQF6); conditions: 2 screens; 5.0 μM or 12. μM; cited from earlier work
T2 sequence (Q9BQF6 1-1050): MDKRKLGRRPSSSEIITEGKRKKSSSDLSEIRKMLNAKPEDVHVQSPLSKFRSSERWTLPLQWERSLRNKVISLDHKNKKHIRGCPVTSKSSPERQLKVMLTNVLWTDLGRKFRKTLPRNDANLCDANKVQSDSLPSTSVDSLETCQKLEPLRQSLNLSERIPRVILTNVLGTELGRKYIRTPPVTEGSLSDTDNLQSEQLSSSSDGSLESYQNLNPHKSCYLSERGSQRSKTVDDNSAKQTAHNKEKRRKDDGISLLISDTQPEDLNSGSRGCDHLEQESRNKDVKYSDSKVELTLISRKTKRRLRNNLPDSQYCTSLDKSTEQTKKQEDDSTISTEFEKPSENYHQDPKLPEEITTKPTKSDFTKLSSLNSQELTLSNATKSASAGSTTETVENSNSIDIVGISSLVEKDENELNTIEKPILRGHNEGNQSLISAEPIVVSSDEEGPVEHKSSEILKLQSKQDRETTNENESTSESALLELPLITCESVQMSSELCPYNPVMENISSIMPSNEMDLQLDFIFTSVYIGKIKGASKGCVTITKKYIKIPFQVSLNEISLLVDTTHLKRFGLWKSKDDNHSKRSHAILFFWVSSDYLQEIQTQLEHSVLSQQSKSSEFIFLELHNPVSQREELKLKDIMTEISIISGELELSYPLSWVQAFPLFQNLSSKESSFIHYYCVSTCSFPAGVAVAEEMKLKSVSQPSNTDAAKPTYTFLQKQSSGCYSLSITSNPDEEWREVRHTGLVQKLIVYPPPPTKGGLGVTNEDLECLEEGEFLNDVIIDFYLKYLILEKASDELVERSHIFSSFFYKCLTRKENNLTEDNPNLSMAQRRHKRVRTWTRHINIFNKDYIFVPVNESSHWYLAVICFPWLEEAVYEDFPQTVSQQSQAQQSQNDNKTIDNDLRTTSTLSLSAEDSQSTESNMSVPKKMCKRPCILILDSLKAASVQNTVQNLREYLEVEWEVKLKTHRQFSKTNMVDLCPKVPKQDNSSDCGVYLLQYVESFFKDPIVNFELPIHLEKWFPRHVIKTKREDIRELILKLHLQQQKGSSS

SENP8 = biological target: T3, SENP8 (Homo sapiens, UniProt Q96LD8); conditions: Gr-1F: 3 screens, 10.0 μM to 12. μM; O13: 1 screen, 20. μM; cited from earlier work
T3 sequence (Q96LD8 1-212): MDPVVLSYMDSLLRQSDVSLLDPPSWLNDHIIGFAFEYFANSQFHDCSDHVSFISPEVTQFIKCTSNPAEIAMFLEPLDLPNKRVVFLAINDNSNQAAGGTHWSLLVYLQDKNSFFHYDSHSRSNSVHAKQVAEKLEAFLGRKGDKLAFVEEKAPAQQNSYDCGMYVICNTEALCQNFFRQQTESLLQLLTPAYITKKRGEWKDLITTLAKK

[1] = tested on: two breast cancer-derived tumor cell lines; experiment: Viability of breast cancer-derived tumor cell lines; format: cell-based; conditions: 5 μM
DNA = experiment: Comet assay (DNA damage); format: cell-based; conditions: preliminary analysis

| Compound | EC50 (NFKBIA) | SENP6 inhibition (SENP6) | SENP8 inhibition (SENP8) | also measured |
| --- | --- | --- | --- | --- |
| O=[N+]([O-])c1ccccc1S(=O)(=O)Nc1cccc2cccnc12 [Gr-3A] | 11 µM and 12 µM |  |  |  |
| Cc1ccc(NC(=O)c2ccc([N+](=O)[O-])o2)cc1C [Gr-1F] |  | ~80% | 60%-80% | SENP7 inhibition (SENP7): ~90% |
| Nc1ccccc1S(=O)(=O)Nc1cccc2cccnc12 [Gr-3C] | 8.5 µM and 11 µM |  |  |  |
| [O-][n+]1onc2c3nsnc3c(Br)cc21 [O17] |  |  |  | Cell viability in two breast cancer-derived tumor cell lines [1]: significantly reduce cell viability |
| O=C(NCc1cccnc1)/C(=C\c1cccc(Oc2ccccc2)c1)S(=O)(=O)c1ccccc1 [Gr-7A] |  |  |  | Fraction of damaged DNA with long comet tails (DNA): significantly increased the fraction of damaged DNA with long comet tails |
| O=C(c1ccc([N+](=O)[O-])o1)N1CCc2ccccc21 [O13] |  | ~50% | ~50% |  |

Source: US11413278B2, “Compounds and methods for promoting stress resistance” (priority 2015, dated 2022)
